In a melting point compilation (Tetko et al.):

Conditions: a range is the spread between reports

SMILES | melting point [°C]
Clc1cc(Cl)c(Cl)c(Cl)c1 | 51.5 to 55
CC(C)CBr | -119 to -117
CCCCCCCCCCCCCCCC(=O)O | 61 to 62.5
Nc1ccc(Br)cc1Br | 78 to 80
CC(C)C(C)C(C)C | -110 to -109
Nc1ccc([N+](=O)[O-])cc1 | 146 to 150
CCCCCCCCCCCCCCCCCC | 28 to 28.2
Fc1ccc(-c2ccccc2)cc1 | 74 to 74.2
COC(=O)c1cc(Cl)ccc1[N+](=O)[O-] | 48.5 to 49
CC(C(C)(C)C)C(C)(C)C | -39 to -38.7
CN | -93.4 to -93
COc1cc(CNC(=O)CCCCC=CC(C)C)ccc1O | 65 to 66
CCC(N)=O | 78 to 81.3
Nc1ccc(C2CCCCC2)cc1 | 53 to 54.5
c1ccc(-c2nc3ccccc3s2)cc1 | 114 to 115
Cc1cc(C)cc(C)c1 | -45 to -44.7
CN1CCC(=C2c3ccccc3C=Cc3ccccc32)CC1 | 112 to 113
Clc1cc(Cl)cc(I)c1 | 56 to 57
Oc1ccc(Br)cc1Br | 37 to 40
Cc1cccc(C)c1Cl | -36 to -35
CCCC | -138 to -137
NCCN1CCOCC1 | 24 to 25.6
OCCCCO | 16 to 20.4
CC(=O)Nc1ccccc1[N+](=O)[O-] | 92 to 94

SMILES | melting point [°C]
CN1C2CCC1CC(=O)C2 | 42 to 43
CCCl | -139
O=C1C=CC(=O)C=C1 | 114 to 116
O=[N+]([O-])c1ccc(O)c(F)c1 | 119 to 121
Clc1ccccc1C(Cl)(Cl)Cl | 29 to 30
FC(F)(F)c1ccc(Cl)nc1 | 31 to 33
CCC(C)(C)C(C)C | -101
Clc1ccc(-c2ccc(Cl)cc2)cc1 | 149
N#CCc1cccc(CC#N)c1 | 33 to 34
Oc1ccc2ccccc2c1 | 122 to 123
c1ccc(-c2ccccn2)nc1 | 70 to 72
BrCCCCBr | -20 to -16.5
Oc1cc(Cl)ccc1Oc1ccc(Cl)cc1Cl | 55.6 to 57
Cc1ccccc1Cc1ccccc1 | 6.6 to 7
CN(C)c1ccncc1 | 111 to 112
CCn1cc(C(=O)O)c(=O)c2cc(F)c(N3CCNC(C)C3)c(F)c21 (stereo not given) | 240
OCC(F)(F)F | -44 to -43.5
CC(=O)CCC(C)=O | -7 to -5.5
CCCCCC(C)(C)O | -50.4 to -50
Nc1cccc2cccc(N)c12 | 63 to 66.5
BrCc1ccc2ccccc2c1 | 53 to 56
Cc1ccc(O)c(O)c1 | 65 to 68
OCCN(CCO)CCO | 19.5 to 20.5
CCCCCCCCC(=O)CC | 9 to 13

SMILES | melting point [°C]
Nc1ccc2ccc3cccc4ccc1c2c34 | 116 to 118
CCn1ccc(NS(=O)(=O)c2ccc(N)cc2)nc1=O | 166 to 167
Brc1ccc(Br)c2ccccc12 | 81 to 83
C=C(c1ccccc1)c1ccccc1 | 6 to 8.2
O=C(O)CC(O)(CC(=O)O)C(=O)O | 153 to 154
Cc1ccccc1C(C)C | -72 to -71.5
CCNC(=S)NCC | 77 to 78
COC(=O)C(Cl)Cl | -52 to -51.9
CCCCCCCCCCCCCC(=O)OCC | 12 to 12.3
Cc1cc(Br)c(C)cc1Br | 73 to 74
Nc1ccc(F)c(Cl)c1 | 45.5 to 46
CC(C)(C)c1ccc(O)c(O)c1 | 54.3 to 55
C=CC(C)(C)CC | -134
O=C(CBr)c1ccccc1 | 49 to 50.5
CCCCOc1ccc(C(=O)O)cc1 | 147 to 148
CCCCCCCCCCCC | -10 to -9.6
Cc1ccc(C)c(C)c1 | -44 to -43.8
CS(=O)(=O)c1ccc(C(=O)O)cc1 | 270 to 273
CC(=O)Oc1ccc(C(=O)O)cc1 | 192 to 194
C(CC1CCNCC1)CC1CCNCC1 | 66 to 67.1
Clc1ccc(Cl)c(Cl)c1Cl | 47 to 47.5
O=CNc1ccccc1 | 46 to 47
NNC(=O)c1ccc(N)cc1 | 226 to 228
NC(=O)c1ccc([N+](=O)[O-])cc1 | 200 to 202

SMILES | melting point [°C]
COc1cc(C#N)ccc1O | 86 to 87
O=Cc1ccc2ccccc2n1 | 68 to 71
O=[N+]([O-])c1cccc(CBr)c1 | 58 to 59.3
N#CCCC#N | 54 to 56
CC(C)=CC=C(C)C | 12 to 13
CC(C)CC(=O)O | -33 to -29.3
CCOC(=O)/C=C/C(=O)OCC | 0 to 2
CC12CCC(C(Br)C1=O)C2(C)C (stereo not given) | 76 to 77
BrCC(Br)CBr | 16 to 17
CCCCCCCCCCCCC=O | 14 to 15
Cc1ccc(NC(=O)c2ccccc2)cc1 | 156 to 158
CCCCC | -130
OCCCCCCO | 42 to 45
CC1(O)CCCC1 | 36 to 37
CCCC(C)(C)C(C)C | -117
COc1cccc(C(=O)O)c1 | 103 to 107
OCc1ccc(Br)cc1 | 76 to 78
O=C(O)c1ccc([N+](=O)[O-])cc1Cl | 139 to 142
COCCOCCOC | -68 to -64
CCCCCCCCCCCCCCCC(=O)OCC(COC(=O)CCCCCCCCCCCCCCC)OC(=O)CCCCCCCCCCCCCCC | 62 to 66.5
C[Si](c1ccccc1)(c1ccccc1)c1ccccc1 | 67 to 69.5
O=C(O)c1ccc(Cl)c(Cl)c1 | 207 to 208
CCOC(=O)CCC(=O)OCC | -21 to -20
